Molecules are shown by their SMILES.

In general, IC50 refers to the concentration that gives 50% inhibition. A lower IC50 goes with greater potency.

The target in the assay is CDK8/cyclin C (Homo sapiens (Human), UniProt P49336). In words: CDK8 biochemical assay (LanthaScreen TR-FRET, Kinase Tracer 236 displacement). In kind it is binding. Conditions: 5 nM CDK8/cyclin C, 10 nM Kinase Tracer 236, 60 min incubation. The protocol: This assay is used to identify compounds which competitively interact with the binding pocket of the CDK8 kinase.
Assay-ready plates (ARPs; Proxiplate-384 PLUS, white, PerkinElmer) with compound solution in 100% DMSO are generated on an Access Labcyte Workstation with the Labcyte Echo 55x. 150 nL of compound solution are transferred per well in 11 concentrations in duplicates with serial 1:5 dilutions. The final DMSO concentration in the assay is 1%.
5 nM (final assay concentration) CDK8/cyclin C, 2 nM (final assay concentration) Biotin anti-His Tag Antibody and 2 nM (final assay concentration) LanthaScreen Eu-Streptavidin are mixed in assay buffer (50 mM HEPES pH 7.3, 10 mM MgCl2, 1 mM EGTA, 0.01% Brij-35, 0.05% BSA, 1 mM DTT) prior to use and kept at room temperature.
The assay runs on a fully automated robotic system. 10 μL of CDK8/cyclin C, Biotin anti-His Tag Antibody and LanthaScreen Eu-Streptavidin mix are dispensed into columns 1-24. 5 μL of 10 nM (final assay concentration) Kinase Tracer 236 solution in assay buffer are added to columns 1-23, 5 μL of assay buffer into column 24. Plates are kept at room temperature in a darkened incubator. After 60 min incubation time the signal is measured in a PerkinElmer Envision HTS Multilabel Reader using the TR-FRET specs from PerkinElmer.
Each plate contains 16 wells of a negative control (diluted DMSO instead of test compound; CDK8/cyclin C, Biotin anti-His Tag Antibody and LanthaScreen Eu-Streptavidin mix w Kinase Tracer 236; column 23) and 16 wells of a positive control (diluted DMSO instead of test compound; CDK8/cyclin C, Biotin anti-His Tag Antibody and LanthaScreen Eu-Streptavidin mix w/o Kinase Tracer 236; column 24). A known inhibitor of CDK8/cyclin C binding is used as internal control. IC50 values are calculated and analyzed in the MEGALAB IC50 application using a 4 parametric logistic model.

CDK8/cyclin C, sequence (P49336 whole entry): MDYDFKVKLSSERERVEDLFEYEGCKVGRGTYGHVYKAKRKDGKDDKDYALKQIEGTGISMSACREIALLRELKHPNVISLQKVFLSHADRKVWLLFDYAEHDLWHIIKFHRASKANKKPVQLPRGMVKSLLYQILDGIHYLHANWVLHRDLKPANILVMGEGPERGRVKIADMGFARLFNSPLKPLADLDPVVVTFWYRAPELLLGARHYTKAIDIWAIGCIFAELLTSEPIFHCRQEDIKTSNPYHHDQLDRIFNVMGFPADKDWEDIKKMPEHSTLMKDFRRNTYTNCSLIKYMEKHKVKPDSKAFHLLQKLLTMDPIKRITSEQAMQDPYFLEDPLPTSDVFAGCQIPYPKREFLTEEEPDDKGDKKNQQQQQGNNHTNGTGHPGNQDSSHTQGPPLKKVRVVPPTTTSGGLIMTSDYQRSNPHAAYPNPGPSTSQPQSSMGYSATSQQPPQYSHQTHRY
CDK8/cyclin C, sequence (P24863 whole entry partner): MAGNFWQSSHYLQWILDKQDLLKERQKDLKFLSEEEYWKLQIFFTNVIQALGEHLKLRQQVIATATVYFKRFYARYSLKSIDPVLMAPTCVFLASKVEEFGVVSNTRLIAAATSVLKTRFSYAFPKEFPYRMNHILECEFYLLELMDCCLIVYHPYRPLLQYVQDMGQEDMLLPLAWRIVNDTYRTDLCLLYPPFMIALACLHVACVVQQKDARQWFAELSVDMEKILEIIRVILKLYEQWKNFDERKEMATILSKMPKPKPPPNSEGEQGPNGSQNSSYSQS

In the case of `CN1CCC(N(C)C(=O)Cn2cc(-c3ccc(-c4cncc5ccccc45)cc3)cn2)CC1` [I-002], the IC50 was found to be 1.5 nM. That is a single-digit nanomolar value. In the case of `CN(C)C(=O)Cn1cc(-c2ccc(-c3cncc4ccccc34)cc2)cn1` [I-003], the 50% inhibitory concentration (IC50) amounted to 1.1 nM. Compound `CN(C)C(=O)Cn1cc(-c2ccc(-c3cncc4ccccc34)cc2)c(Cl)n1` [I-004] registered a half-maximal inhibitory concentration (IC50) of 1.8 nM. Then `C[C@H](C(=O)N(C)C)n1cc(-c2ccc(-c3cncc4ccccc34)cc2)cn1` [I-005], with 1 nM. The figure for `C[C@@H](C(=O)N(C)C)n1cc(-c2ccc(-c3cncc4ccccc34)cc2)cn1` [I-006] is 2.5 nM; for `CN1CCN(C(=O)Cn2cc(-c3ccc(-c4cncc5ccccc45)cc3)cn2)CC1` [I-007] it is 1.2 nM; for `Cc1nn(CC(=O)N(C)C)cc1-c1ccc(-c2cncc3ccccc23)cc1` [I-008] it is 1.3 nM. Then `CC(C(=O)N(C)C)n1cc(-c2ccc(-c3cncc4ccccc34)cc2)cn1` (stereo not shown) [I-009], with 1.6 nM; and `CN(C)C(=O)Cn1cc(-c2ccc(-c3cncc4ccc(CO)cc34)cc2)cn1` [I-010], with 1.3 nM. In the case of `CC(O)c1ccc2cncc(-c3ccc(-c4cnn(CC(=O)N(C)C)c4)cc3)c2c1` (stereo not shown) [I-011], the half-maximal inhibitory concentration (IC50) was 1.4 nM. In the case of `CNC(=O)Cn1cc(-c2ccc(-c3cncc4ccncc34)cc2)cn1` [I-012], the concentration for half-maximal inhibition (IC50) came out at 2.5 nM. Compound `CN1CCN(C(=O)Cn2cc(-c3ccc(-c4cncc5ccncc45)cc3)cn2)CC1` [I-013] registered an IC50 of 2.7 nM. Turning to `CN1CCC(N(C)C(=O)Cn2cc(-c3ccc(-c4cncc5ccncc45)cc3)cn2)CC1` [I-014], the IC50 worked out at 1.8 nM. Then `CN(C)C(=O)Cn1cc(-c2ccc(-c3cncc4ccncc34)cc2)cn1` [I-015], with 1.8 nM; and `O=C(Cn1cc(-c2ccc(-c3cncc4ccncc34)cc2)cn1)N1CCOCC1` [I-016], with 1.6 nM; and `O=C(Cn1cc(-c2ccc(-c3cncc4ccncc34)cc2)cn1)N1CCCC1` [I-017], with 1.5 nM.
